Test [1] concerns the target T1, human JAK2 kinase domain (JH1) (Homo sapiens, UniProt O60674).
T1 construct: recombinantly generated catalytic kinase (also known as JH1) domain of human JAK1, JAK2, JAK3 and TYK2
The test is described as follows: JH1 biochemical assay for JAK2 (ADP-Glo kinase assay, recombinant JH1 catalytic domain, JAK3-974 peptide, 15 μM ATP). As to conditions: JAK2 JH1, ADP-Glo. In outline:
(§1)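 Compounds were titrated in 11 points of 3-fold dilution starting at 10 μM or 1 μM. Enzyme (JAK1 4 nM, JAK2 0.2 nM, JAK3 0.3 nM, TYK2 2 nM) and 50 μM peptide reacted for 100 minutes, followed by ADP-to-luminescence detection; IC50 by 4-parameter fit.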
A general note: ADP-Glo first removes unused ATP, then detects ADP through luciferase.

Test [2] addresses T2, human TYK2 kinase domain (JH1) (Homo sapiens, UniProt P29597).
T2 construct: recombinantly generated catalytic kinase (also known as JH1) domain of human JAK1, JAK2, JAK3 and TYK2
T2 sequence (P29597 897-1176 limits assumed): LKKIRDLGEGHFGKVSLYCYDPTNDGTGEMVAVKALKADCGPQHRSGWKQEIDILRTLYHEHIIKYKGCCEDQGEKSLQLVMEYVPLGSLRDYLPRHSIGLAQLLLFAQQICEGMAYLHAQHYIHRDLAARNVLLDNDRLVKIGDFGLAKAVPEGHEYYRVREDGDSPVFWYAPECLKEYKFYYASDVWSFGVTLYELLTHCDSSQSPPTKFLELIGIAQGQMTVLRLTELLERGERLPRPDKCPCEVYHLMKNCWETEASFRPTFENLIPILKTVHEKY
Put plainly: JH1 biochemical assay for TYK2 (ADP-Glo kinase assay, recombinant JH1 catalytic domain, JAK3-974 peptide, 10 μM ATP). As to conditions: TYK2 JH1, ADP-Glo. In a few lines: as §1

Test [3] has as its target Tyk2 kinase activity on STAT4 in NK92 cells (Homo sapiens, UniProt P29597). The test is described as follows: pSTAT4 cell assay (MSD; NK92 cells, 30 ng/mL IL2 stimulation). It is filed as cell-based. The following applies: 30 ng/mL IL2, 15 minutes. In outline:
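Read-out: phospho-STAT in NK92 lysates, MSD format, anti-STAT4 antibodies. Cells were serum-starved, given compound for 1 hr (10 μM top, four-fold, 10 points) and IL2-stimulated (30 ng/mL, 15 min). Normalized percent activity vs log concentration, 4-parameter logistic fit gave IC50.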

In test [4] the target is T3, human JAK1 kinase domain (JH1) (Homo sapiens, UniProt P23458).
T3 construct: recombinantly generated catalytic kinase (also known as JH1) domain of human JAK1, JAK2, JAK3 and TYK2
Put plainly: JH1 biochemical assay for JAK1 (ADP-Glo kinase assay, recombinant JH1 catalytic domain, JAK3-342 peptide, 35 μM ATP). The following applies: JAK1 JH1, ADP-Glo. In outline:
as §1

Test [5] deals with T4, human JAK3 kinase domain (JH1) (Homo sapiens, UniProt P52333).
T4 construct: recombinantly generated catalytic kinase (also known as JH1) domain of human JAK1, JAK2, JAK3 and TYK2
Put plainly: JH1 biochemical assay for JAK3 (ADP-Glo kinase assay, recombinant JH1 catalytic domain, JAK3-974 peptide, 4 μM ATP). As to conditions: JAK3 JH1, ADP-Glo. In a few lines: as §1

The target of test [6] is JAK1 kinase activity on STAT3 in TF1 cells (Homo sapiens, UniProt P23458). Put plainly: pSTAT3 cell assay (MSD; TF1 cells, 30 ng/mL IL-6 stimulation). It is filed as cell-based. The following applies: 30 ng/mL IL-6, 15 minutes. In outline:
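IC50 values derive from 4-parameter logistic fits of normalized pSTAT3 signal, measured by MSD with anti-STAT3 antibodies. TF1 cells, serum-starved beforehand, received compound for 1 hour (top concentration 10 μM, four-fold steps, 10 points) before a 15-minute IL-6 (30 ng/mL) stimulus.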

Test [7] addresses JAK2 kinase activity on STAT5 in TF1 cells (Homo sapiens, UniProt O60674). The test is described as follows: pSTAT5 cell assay (MSD; TF1 cells, 30 ng/mL IL-3 stimulation). The following applies: 30 ng/mL IL-3, 15 minutes. It is filed as cell-based. In outline: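 IC50 from a 4-parameter logistic fit of normalized pSTAT5 signal, measured by MSD in lysates of TF1 cells. Cells were serum-starved, exposed to compound for 1 h (top concentration 10 μM, four-fold, 10 points), then given IL-3 at 30 ng/mL for 15 min.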

SMILES strings stand for the structures.

T4 sequence (P52333 822-1111 limits assumed): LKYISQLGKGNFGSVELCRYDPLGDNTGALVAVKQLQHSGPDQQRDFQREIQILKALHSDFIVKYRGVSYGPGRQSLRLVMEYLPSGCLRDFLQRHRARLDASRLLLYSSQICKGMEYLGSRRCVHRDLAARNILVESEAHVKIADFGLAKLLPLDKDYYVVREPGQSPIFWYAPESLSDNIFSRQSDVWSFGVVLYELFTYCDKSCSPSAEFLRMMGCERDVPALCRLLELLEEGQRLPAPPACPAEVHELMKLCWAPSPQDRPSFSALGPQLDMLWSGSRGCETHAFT
Chain of JAK1 kinase activity on STAT3 in TF1 cells (P23458 whole entry): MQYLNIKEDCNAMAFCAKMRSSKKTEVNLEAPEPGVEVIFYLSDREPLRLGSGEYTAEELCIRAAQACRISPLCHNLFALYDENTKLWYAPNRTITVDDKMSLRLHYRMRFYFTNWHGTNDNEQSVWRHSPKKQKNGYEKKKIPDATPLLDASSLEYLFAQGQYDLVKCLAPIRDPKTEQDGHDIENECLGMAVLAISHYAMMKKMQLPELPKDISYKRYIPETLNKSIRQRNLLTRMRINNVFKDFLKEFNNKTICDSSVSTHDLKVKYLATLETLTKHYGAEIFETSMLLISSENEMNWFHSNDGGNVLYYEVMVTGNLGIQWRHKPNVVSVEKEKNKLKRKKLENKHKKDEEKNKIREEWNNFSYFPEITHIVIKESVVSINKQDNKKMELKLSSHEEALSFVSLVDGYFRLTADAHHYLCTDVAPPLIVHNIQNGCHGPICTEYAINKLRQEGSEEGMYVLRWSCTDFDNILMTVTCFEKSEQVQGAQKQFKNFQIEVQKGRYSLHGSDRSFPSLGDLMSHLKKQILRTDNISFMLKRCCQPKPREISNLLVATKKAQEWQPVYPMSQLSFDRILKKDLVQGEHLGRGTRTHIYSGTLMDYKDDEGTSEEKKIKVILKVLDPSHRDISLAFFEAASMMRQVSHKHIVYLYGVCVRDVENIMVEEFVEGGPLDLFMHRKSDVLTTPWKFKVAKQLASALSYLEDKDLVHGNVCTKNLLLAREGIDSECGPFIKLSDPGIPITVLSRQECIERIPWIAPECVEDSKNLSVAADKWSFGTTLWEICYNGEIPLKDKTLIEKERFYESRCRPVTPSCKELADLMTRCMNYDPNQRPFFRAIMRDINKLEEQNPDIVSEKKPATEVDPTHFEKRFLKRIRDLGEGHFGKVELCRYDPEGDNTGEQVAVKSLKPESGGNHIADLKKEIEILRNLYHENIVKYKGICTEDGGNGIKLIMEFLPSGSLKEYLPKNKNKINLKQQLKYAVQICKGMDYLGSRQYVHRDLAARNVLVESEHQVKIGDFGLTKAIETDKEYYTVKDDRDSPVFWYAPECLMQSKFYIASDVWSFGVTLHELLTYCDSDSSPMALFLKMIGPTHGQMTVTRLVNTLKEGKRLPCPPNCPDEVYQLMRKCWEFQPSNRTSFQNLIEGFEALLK
T3 sequence (P23458 875-1153 limits assumed): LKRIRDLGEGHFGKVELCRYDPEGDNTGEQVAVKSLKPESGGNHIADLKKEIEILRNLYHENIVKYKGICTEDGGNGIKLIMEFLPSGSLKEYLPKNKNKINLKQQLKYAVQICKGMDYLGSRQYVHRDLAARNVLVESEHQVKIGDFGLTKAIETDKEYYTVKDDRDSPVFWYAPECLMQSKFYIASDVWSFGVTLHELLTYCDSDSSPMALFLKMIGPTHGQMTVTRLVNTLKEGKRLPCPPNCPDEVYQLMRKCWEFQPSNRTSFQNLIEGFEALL
T1 sequence (O60674 849-1124 limits assumed): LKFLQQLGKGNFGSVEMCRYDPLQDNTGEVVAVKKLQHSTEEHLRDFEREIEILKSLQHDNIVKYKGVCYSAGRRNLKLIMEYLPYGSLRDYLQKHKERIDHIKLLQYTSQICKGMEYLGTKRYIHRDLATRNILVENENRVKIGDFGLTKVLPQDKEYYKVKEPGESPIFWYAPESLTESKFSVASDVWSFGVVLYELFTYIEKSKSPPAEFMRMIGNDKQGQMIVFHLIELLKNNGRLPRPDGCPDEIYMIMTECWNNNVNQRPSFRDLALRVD
Chain of JAK2 kinase activity on STAT5 in TF1 cells (O60674 whole entry): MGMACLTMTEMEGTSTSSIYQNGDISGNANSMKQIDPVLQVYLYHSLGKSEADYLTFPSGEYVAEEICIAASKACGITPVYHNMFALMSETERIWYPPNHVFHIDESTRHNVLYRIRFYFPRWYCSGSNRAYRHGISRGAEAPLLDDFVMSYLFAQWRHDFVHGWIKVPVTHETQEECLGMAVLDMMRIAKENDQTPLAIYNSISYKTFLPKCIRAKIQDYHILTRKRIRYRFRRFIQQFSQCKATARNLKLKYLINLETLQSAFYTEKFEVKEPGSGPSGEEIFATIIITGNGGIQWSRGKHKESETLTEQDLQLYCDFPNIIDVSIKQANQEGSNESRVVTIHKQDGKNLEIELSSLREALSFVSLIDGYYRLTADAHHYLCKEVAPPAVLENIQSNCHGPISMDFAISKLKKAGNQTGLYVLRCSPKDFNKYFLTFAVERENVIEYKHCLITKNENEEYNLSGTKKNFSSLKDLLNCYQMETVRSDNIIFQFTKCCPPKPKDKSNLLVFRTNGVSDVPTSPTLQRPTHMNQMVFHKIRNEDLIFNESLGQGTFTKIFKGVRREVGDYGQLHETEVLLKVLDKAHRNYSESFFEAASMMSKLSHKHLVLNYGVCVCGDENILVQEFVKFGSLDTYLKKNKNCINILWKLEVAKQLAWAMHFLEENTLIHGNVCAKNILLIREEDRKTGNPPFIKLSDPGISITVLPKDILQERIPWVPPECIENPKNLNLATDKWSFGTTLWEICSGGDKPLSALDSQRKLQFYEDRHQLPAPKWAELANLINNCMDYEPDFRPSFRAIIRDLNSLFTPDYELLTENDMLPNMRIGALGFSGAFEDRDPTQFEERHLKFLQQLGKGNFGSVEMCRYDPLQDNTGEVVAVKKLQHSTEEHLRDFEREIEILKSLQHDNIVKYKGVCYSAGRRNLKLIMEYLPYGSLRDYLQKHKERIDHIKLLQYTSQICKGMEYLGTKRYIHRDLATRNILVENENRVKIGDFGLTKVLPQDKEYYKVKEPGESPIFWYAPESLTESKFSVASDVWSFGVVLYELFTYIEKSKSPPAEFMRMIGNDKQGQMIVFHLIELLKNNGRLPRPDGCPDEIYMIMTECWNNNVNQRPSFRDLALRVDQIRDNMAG
Chain of Tyk2 kinase activity on STAT4 in NK92 cells (P29597 whole entry): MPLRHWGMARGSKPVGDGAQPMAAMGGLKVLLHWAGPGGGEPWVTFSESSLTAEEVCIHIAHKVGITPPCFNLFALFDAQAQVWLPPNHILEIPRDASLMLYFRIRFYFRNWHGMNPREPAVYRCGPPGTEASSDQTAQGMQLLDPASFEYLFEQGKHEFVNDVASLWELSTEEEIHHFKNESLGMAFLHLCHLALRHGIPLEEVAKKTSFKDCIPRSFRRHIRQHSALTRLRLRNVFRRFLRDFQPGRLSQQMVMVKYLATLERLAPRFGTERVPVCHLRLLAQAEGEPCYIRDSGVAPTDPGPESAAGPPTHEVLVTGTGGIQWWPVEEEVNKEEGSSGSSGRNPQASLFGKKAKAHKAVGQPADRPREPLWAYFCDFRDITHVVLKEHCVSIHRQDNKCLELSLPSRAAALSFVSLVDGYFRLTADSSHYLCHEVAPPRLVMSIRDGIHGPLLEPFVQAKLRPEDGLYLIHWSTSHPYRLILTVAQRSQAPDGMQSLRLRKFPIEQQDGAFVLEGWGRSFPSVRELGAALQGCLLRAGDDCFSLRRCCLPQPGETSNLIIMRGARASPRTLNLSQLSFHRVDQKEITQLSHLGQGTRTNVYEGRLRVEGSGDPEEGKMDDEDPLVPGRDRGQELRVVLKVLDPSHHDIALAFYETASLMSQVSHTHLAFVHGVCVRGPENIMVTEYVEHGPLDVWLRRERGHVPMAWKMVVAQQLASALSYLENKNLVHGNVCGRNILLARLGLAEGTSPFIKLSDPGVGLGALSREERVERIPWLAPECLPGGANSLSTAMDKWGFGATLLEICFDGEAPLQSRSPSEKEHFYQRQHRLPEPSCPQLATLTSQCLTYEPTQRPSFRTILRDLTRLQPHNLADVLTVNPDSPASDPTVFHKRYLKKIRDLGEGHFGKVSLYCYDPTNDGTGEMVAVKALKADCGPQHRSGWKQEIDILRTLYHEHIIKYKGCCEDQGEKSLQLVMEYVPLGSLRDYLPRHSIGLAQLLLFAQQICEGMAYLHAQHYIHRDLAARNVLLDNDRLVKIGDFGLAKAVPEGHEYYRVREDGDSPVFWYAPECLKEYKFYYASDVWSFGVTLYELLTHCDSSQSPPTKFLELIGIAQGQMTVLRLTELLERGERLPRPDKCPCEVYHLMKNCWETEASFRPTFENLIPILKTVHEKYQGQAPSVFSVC

By IC50 is commonly meant the concentration at which inhibition is half-maximal. With `C[C@@H]1CN(c2cc(-c3cnn(C4COC4)c3)cc3ncsc23)C(=O)[C@]1(C#N)C1CC1` [Example 348, (3R,4S)-3-cyclopropyl-4-methyl-1-(5-(1-(oxetan-3-yl)-1H-pyrazol-4-yl)benzo[d]thiazol-7-yl)-2-oxopyrrolidine-3-carbonitrile], the concentration for half-maximal inhibition (IC50) is under 100 nM in test [1]; under 5 nM in test [2]; 50 to 100 nM in test [3]; under 100 nM in test [4]; under 100 nM in test [5]; 100 to 1000 nM in test [6]. The molecule also yielded an IC50 in test [7] of 100 to 1000 nM.

As for `C[C@@H]1CN(c2cc(-c3cnn(C(F)F)c3)cc3ncsc23)C(=O)[C@]1(C#N)C1CC1` [Example 349, (3R,4S)-3-cyclopropyl-1-(5-(1-(difluoromethyl)-1H-pyrazol-4-yl)benzo[d]thiazol-7-yl)-4-methyl-2-oxopyrrolidine-3-carbonitrile], the IC50 was 100 to 1000 nM in test [1]; under 5 nM in test [2]; over 100 nM in test [3]; under 100 nM in test [4]; under 100 nM in test [5]; 100 to 1000 nM in test [6]. The IC50 in test [7] was 1000 to 5000 nM.

Consider `C[C@@H]1CN(c2cc(-c3cnn(C)c3)cc3ncsc23)C(=O)[C@]1(C#N)C1CC1` [Example 350, (3R,4S)-3-cyclopropyl-4-methyl-1-(5-(1-methyl-1H-pyrazol-4-yl)benzo[d]thiazol-7-yl)-2-oxopyrrolidine-3-carbonitrile], for which the IC50 in test [1] was 100 to 1000 nM; in test [2], under 5 nM; in test [3], 50 to 100 nM; in test [4] it was under 100 nM; in test [5] it was under 100 nM; in test [6], 100 to 1000 nM. Besides, the IC50 in test [7] lay in the range of 1000 to 5000 nM.

For `C[C@@H]1CN(c2nc(-c3cnn(C(F)F)c3)cc3ncsc23)C(=O)[C@]1(C#N)C1CC1` [Example 353, (3R,4S)-3-cyclopropyl-1-(6-(1-(difluoromethyl)-1H-pyrazol-4-yl)thiazolo[5,4-c]pyridin-4-yl)-4-methyl-2-oxopyrrolidine-3-carbonitrile], the IC50 in test [1] is under 100 nM; in test [2] it was under 5 nM; in test [3] it was 20 to 50 nM; in test [4] it was under 100 nM; in test [5], under 100 nM; in test [6] it was under 100 nM. For the same molecule, in test [7], the IC50 was in the range of 100 to 1000 nM.

As for `C[C@@H]1CN(c2nc(-c3cnn(CC(F)F)c3)cc3ncsc23)C(=O)[C@]1(C#N)C1CC1` [Example 354, (3R,4S)-3-cyclopropyl-1-(6-(1-(2,2-difluoroethyl)-1H-pyrazol-4-yl)thiazolo[5,4-c]pyridin-4-yl)-4-methyl-2-oxopyrrolidine-3-carbonitrile], the IC50 was under 100 nM in test [1]; under 5 nM in test [2]; 20 to 50 nM in test [3]; under 100 nM in test [4]; under 100 nM in test [5]; under 100 nM in test [6]. Also, in test [7], the concentration for half-maximal inhibition (IC50) was under 100 nM.

`CO[C@H]1C[C@H](n2cc(-c3cc4ncsc4c(N4C[C@@H](C)[C@@](C#N)(C5CC5)C4=O)n3)cn2)C1` [Example 355, (3R,4S)-3-cyclopropyl-1-(6-(1-((1r,3R)-3-methoxycyclobutyl)-1H-pyrazol-4-yl)thiazolo[5,4-c]pyridin-4-yl)-4-methyl-2-oxopyrrolidine-3-carbonitrile]: the half-maximal inhibitory concentration (IC50) was under 100 nM in test [1]; under 5 nM in test [2]; 20 to 50 nM in test [3]; under 100 nM in test [4]; under 100 nM in test [5]; under 100 nM in test [6]. In test [7], this molecule returned an IC50 of under 100 nM.

Take `C[C@@H]1CN(c2nc(-c3cnn(C4CC(C#N)C4)c3)cc3ncsc23)C(=O)[C@]1(C#N)C1CC1` (stereo partly drawn) [Example 356, (3R,4S)-1-(6-(1-(3-cyanocyclobutyl)-1H-pyrazol-4-yl)thiazolo[5,4-c]pyridin-4-yl)-3-cyclopropyl-4-methyl-2-oxopyrrolidine-3-carbonitrile]: the IC50 was under 100 nM in test [1]; under 5 nM in test [2]; 20 to 50 nM in test [3]; under 100 nM in test [4]; under 100 nM in test [5]; 100 to 1000 nM in test [6]. In test [7], the IC50 is under 100 nM.

In the case of `C[C@@H]1CN(c2nc(-c3cnn(C4CC4)c3)cc3ncsc23)C(=O)[C@]1(C#N)C1CC1` [Example 357, (3R,4S)-3-cyclopropyl-1-(6-(1-cyclopropyl-1H-pyrazol-4-yl)thiazolo[5,4-c]pyridin-4-yl)-4-methyl-2-oxopyrrolidine-3-carbonitrile], the IC50 was under 100 nM in test [1]; under 5 nM in test [2]; 20 to 50 nM in test [3]; under 100 nM in test [4]; under 100 nM in test [5]; under 100 nM in test [6]. This molecule yielded an IC50 in test [7] of under 100 nM.

`C[C@@H]1CN(c2nc(-c3cnn(C4CN(C)C4)c3)cc3ncsc23)C(=O)[C@]1(C#N)C1CC1` [Example 358, (3R,4S)-3-cyclopropyl-4-methyl-1-(6-(1-(1-methylazetidin-3-yl)-1H-pyrazol-4-yl)thiazolo[5,4-c]pyridin-4-yl)-2-oxopyrrolidine-3-carbonitrile]: the IC50 in test [1] was under 100 nM; in test [2], under 5 nM; in test [3] it was 50 to 100 nM; in test [4], under 100 nM; in test [5] it was under 100 nM; in test [6], 100 to 1000 nM. In test [7], this molecule yielded an IC50 of 100 to 1000 nM.
